ChEMBL document CHEMBL1135763, “Discovery of aminothiazole inhibitors of cyclin-dependent kinase 2: synthesis, X-ray crystallographic analysis, and biological activities” (J Med Chem, 2002)

Assays:
[1] = Tmax value at a dose of 10 mg/kg peroral administration in mice.; type: ADME, organism-based; set-up: dose 10 mg/kg, route oral; settings: mouse, in vivo, po
A2780 = assay: […] antitumor activity against A2780 human ovarian carcinoma at 7.5 mg/kg i.p. /qd x7; type: functional; settings: route intraperitoneal
[2] = Inhibition of I kappa-B kinase
[3] = At a dose 50 mg/kg (114 umol/kg) was administered intraperitoneally to mice and was evaluated for Cmax; type: ADME, organism-based; set-up: dose 50 mg/kg, route intraperitoneal; settings: mouse, in vivo, ip
Mus musculus [4] = assay: AUC total value at a dose of 10 mg/kg peroral administration in mice.; type: ADME, organism-based, Plasma; set-up: dose 10 mg/kg, route oral; settings: in vivo, po
[5] = biological target: T1, Tyrosine-protein kinase ITK/TSK (Homo sapiens, UniProt Q08881); assay: Inhibition of tyrosine kinase EMT
T1 sequence (Q08881 whole entry): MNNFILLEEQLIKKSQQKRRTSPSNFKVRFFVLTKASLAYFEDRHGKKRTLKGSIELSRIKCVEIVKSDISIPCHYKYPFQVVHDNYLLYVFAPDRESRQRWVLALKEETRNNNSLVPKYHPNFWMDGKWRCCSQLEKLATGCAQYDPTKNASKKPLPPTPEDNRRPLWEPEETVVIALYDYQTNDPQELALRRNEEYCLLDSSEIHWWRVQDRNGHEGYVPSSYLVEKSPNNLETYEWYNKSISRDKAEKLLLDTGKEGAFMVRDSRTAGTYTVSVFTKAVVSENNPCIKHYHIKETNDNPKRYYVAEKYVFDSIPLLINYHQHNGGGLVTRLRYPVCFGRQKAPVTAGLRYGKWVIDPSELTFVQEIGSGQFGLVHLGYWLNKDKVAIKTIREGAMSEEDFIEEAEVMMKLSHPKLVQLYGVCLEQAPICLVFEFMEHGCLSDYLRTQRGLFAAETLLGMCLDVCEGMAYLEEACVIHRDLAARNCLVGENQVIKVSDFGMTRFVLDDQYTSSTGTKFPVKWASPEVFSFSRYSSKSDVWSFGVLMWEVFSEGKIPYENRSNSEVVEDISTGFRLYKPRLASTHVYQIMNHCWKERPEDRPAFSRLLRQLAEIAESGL

[6] = biological target: Cyclin-dependent kinase 4/cyclin D1 (Homo sapiens, UniProt P11802); assay: Inhibitory activity against baculovirus expressed Cyclin dependent kinase 4-cyclinD1; type: protein-complex assay
Cyclin-dependent kinase 4/cyclin D1, sequence (P11802 whole entry): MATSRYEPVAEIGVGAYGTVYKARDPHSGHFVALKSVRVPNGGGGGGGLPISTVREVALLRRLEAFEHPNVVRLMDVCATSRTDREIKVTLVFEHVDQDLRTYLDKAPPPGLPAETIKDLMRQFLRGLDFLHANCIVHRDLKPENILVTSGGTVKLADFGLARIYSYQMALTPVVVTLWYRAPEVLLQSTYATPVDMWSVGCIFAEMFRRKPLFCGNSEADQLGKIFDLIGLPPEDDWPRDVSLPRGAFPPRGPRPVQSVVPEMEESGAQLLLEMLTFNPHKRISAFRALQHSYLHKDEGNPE
Cyclin-dependent kinase 4/cyclin D1, sequence (P24385 whole entry, further chain): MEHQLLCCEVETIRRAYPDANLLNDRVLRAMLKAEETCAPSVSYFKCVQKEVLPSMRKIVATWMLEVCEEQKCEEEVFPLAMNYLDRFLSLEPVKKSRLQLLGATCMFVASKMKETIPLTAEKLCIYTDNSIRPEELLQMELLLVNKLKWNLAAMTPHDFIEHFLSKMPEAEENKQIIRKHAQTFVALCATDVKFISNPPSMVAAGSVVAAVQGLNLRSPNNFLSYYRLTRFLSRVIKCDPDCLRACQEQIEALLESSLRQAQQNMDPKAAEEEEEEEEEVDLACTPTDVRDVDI

[7] = MRT value at a dose of 10 mg/kg intravenous administration in mice.; type: ADME, organism-based; set-up: dose 10 mg/kg, route intravenous; settings: mouse, in vivo
[8] = Half life at a dose of 10 mg/kg peroral administration in mice.; type: ADME, organism-based; set-up: dose 10 mg/kg, route oral; settings: mouse, in vivo, po
[9] = Tmax value at a dose of 10 mg/kg intravenous administration in mice.; type: ADME, organism-based; set-up: dose 10 mg/kg, route intravenous; settings: mouse, in vivo
[10] = biological target: Protein kinase C zeta (Homo sapiens) (UniProt Q05513); assay: Inhibition of Protein kinase C zeta
Protein kinase C zeta (Homo sapiens), sequence (Q05513 whole entry, looked up): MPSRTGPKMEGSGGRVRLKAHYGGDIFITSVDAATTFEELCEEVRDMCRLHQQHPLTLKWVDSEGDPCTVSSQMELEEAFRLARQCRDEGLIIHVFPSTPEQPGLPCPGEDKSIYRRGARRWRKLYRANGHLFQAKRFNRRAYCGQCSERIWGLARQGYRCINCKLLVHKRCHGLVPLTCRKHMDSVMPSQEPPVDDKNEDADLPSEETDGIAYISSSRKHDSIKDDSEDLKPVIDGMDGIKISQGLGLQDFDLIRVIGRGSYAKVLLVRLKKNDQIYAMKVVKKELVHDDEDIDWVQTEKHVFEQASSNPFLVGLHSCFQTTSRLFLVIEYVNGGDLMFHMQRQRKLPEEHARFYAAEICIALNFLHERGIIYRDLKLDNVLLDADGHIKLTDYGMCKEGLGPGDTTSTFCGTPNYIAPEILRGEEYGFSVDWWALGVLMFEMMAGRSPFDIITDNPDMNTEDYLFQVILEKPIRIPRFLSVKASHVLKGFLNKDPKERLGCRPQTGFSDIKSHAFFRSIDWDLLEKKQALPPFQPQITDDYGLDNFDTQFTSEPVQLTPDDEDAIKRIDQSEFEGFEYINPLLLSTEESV

Homo sapiens [11] = organism: Homo sapiens; assay: Percent of serum binding in human; type: functional
[12] = Cmax value at a dose of 10 mg/kg intravenous administration in mice.; type: ADME, organism-based; set-up: dose 10 mg/kg, route intravenous; settings: mouse, in vivo
[13] = Cmax value at a dose of 10 mg/kg peroral administration in mice.; type: ADME, organism-based; set-up: dose 10 mg/kg, route oral; settings: mouse, in vivo, po
Mus musculus [14] = organism: Mus musculus; assay: Percent of serum binding in mouse; type: functional
[15] = biological target: Protein kinase C epsilon type (Homo sapiens, UniProt Q02156); assay: Inhibition of Protein kinase C epsilon
Protein kinase C epsilon type, sequence (Q02156 whole entry): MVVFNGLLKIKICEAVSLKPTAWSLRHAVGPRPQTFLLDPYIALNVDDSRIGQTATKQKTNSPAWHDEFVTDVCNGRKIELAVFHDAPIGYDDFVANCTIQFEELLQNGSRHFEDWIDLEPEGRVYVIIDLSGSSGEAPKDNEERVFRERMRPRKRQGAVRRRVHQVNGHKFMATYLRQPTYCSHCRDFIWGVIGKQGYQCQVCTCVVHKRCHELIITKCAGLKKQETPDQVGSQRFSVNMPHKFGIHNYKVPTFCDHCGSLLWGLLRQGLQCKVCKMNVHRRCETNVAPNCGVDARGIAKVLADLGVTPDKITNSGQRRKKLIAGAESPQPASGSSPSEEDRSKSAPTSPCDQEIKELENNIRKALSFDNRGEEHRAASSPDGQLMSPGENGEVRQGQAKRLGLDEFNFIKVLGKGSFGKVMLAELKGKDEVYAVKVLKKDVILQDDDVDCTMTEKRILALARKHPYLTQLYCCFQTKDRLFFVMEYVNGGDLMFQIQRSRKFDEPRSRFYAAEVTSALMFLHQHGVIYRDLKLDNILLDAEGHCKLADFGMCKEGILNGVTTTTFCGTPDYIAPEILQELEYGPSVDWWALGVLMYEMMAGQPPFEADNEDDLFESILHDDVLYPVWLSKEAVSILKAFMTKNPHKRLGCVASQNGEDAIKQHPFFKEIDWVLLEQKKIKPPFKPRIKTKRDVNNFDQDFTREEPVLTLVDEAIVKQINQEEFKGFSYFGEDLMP

[16] = Vss value at a dose of 10 mg/kg intravenous administration in mice.; type: ADME, organism-based; set-up: dose 10 mg/kg, route intravenous; settings: mouse, in vivo, read-out: Vss
[17] = MRT value at a dose of 10 mg/kg peroral administration in mice.; type: ADME, organism-based; set-up: dose 10 mg/kg, route oral; settings: mouse, in vivo, po
[18] = At a dose 50 mg/kg (114 umol/kg) was administered intraperitoneally to mice and was evaluated for half life (T1/2); type: ADME, organism-based; set-up: dose 50 mg/kg, route intraperitoneal; settings: mouse, in vivo, ip
Mus musculus [19] = assay: At a dose 50 mg/kg (114 umol/kg) was administered intraperitoneally to mice and was evaluated for area under curve (AUCtot); type: ADME, organism-based; set-up: time AUCmax, dose 50 mg/kg, route intraperitoneal; settings: in vivo, ip
[20] = biological target: Protein kinase C delta type (Homo sapiens, UniProt Q05655); assay: Inhibition of Protein kinase C delta
Protein kinase C delta type, sequence (Q05655 whole entry): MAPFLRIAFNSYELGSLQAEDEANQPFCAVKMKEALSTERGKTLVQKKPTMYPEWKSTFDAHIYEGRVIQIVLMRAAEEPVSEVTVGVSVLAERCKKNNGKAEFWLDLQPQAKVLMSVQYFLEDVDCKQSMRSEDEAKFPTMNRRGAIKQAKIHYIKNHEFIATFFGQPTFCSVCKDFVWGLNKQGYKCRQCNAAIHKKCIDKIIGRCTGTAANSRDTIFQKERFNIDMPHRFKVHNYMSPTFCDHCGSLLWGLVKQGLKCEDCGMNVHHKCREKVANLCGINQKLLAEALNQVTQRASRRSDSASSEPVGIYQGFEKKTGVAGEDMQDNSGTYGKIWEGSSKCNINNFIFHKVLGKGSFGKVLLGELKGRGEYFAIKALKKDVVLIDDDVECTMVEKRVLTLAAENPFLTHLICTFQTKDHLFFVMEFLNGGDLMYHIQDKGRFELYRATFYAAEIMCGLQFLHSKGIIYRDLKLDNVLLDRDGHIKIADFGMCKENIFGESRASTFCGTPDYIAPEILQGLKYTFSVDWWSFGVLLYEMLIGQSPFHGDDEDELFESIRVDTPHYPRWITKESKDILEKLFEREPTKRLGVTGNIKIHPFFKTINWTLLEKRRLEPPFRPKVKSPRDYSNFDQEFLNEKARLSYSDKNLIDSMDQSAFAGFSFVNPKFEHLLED

[21] = Inhibition of Insulin-like growth factor receptor
[22] = biological target: Receptor tyrosine-protein kinase erbB-2 (Homo sapiens, UniProt P04626); assay: Inhibition of HER2 kinase
[23] = biological target: Protein kinase C beta type (Homo sapiens, UniProt P05771); assay: Inhibition of Protein kinase C beta
Protein kinase C beta type, sequence (P05771 whole entry): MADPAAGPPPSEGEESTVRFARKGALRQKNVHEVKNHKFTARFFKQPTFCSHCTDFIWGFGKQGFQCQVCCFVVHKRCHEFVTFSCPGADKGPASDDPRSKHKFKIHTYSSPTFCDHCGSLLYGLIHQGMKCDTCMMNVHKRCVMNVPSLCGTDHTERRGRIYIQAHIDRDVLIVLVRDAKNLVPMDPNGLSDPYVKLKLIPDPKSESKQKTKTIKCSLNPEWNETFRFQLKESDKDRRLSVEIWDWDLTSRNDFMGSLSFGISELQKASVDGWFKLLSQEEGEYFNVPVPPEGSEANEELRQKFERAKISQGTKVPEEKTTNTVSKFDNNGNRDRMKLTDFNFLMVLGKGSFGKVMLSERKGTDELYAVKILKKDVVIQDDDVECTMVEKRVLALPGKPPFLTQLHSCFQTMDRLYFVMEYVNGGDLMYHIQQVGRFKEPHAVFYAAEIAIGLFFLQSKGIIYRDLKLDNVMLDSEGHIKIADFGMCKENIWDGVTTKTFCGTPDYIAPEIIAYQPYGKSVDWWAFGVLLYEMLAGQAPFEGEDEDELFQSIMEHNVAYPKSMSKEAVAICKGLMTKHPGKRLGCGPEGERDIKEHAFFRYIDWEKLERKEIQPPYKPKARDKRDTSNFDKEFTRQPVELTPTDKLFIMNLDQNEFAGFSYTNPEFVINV

[24] = biological target: Tyrosine-protein kinase ZAP-70 (Homo sapiens, UniProt P43403); assay: Inhibition of Zeta-chain (TCR) associated protein kinase 70 kDa (ZAP70)
Tyrosine-protein kinase ZAP-70, sequence (P43403 whole entry): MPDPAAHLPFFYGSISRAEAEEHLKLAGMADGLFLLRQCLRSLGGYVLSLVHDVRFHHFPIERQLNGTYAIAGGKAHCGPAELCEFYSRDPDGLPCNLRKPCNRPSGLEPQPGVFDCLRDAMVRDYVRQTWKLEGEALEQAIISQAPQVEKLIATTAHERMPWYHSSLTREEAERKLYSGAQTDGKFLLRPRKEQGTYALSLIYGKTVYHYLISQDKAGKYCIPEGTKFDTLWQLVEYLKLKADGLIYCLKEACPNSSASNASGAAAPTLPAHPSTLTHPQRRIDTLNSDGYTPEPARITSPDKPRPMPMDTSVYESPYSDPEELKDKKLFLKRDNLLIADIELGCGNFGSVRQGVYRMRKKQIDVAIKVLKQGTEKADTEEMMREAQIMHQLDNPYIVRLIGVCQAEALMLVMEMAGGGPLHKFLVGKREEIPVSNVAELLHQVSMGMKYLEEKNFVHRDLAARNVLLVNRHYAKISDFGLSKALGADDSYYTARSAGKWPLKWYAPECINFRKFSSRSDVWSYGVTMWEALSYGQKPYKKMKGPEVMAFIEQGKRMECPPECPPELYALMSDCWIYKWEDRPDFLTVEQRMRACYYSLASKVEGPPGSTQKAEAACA

[25] = biological target: Protein kinase C alpha type (Homo sapiens, UniProt P17252); assay: Inhibition of Protein kinase C alpha
Mus musculus [26] = organism: Mus musculus; assay: Metabolic rate in mouse; type: ADME
Homo sapiens [27] = organism: Homo sapiens; assay: Metabolic rate in human; type: ADME
[28] = Plasma clearance at a dose of 10 mg/kg intravenous administration in mice.; type: ADME, organism-based; set-up: dose 10 mg/kg, route intravenous; settings: mouse
[29] = Half life at a dose of 10 mg/kg intravenous administration in mice.; type: ADME, organism-based; set-up: dose 10 mg/kg, route intravenous; settings: mouse, in vivo
Mus musculus [30] = assay: At a dose 50 mg/kg (114 umol/kg) was administered intraperitoneally to mice and was evaluated for MRT; type: functional, organism-based; set-up: dose 50 mg/kg
[31] = Bioavailability at a dose of 10 mg/kg peroral administration in mice.; type: ADME, organism-based; settings: mouse, in vivo, po, read-out: Bioavailabiility
Mus musculus [32] = assay: AUC total value at a dose of 10 mg/kg intravenous administration in mice.; type: ADME, organism-based, Plasma; set-up: dose 10 mg/kg, route intravenous; settings: in vivo
P388 = assay: […] antitumor activity against P388 murine leukemia at 7.5 mg/kg i.p. /qd x7 and %T/C; type: functional, Mus musculus; settings: route intraperitoneal
[33] = At a dose 50 mg/kg (114 umol/kg) was administered intraperitoneally to mice and was evaluated for T max; type: ADME, organism-based; set-up: dose 50 mg/kg, route intraperitoneal; settings: mouse, in vivo, ip

Q: With `CC(C)(C)c1cnc(CSc2cnc(NC(=O)Cc3ccc(CNC(CO)CO)cc3)s2)o1` as the molecule, how does the Tmax [1] read?
A: 0.33 h

Q: What about the LCK (A2780) of the same molecule?
A: 3.3

Q: And the IC50 [2]?
A: 28 µM

Q: And the Cmax [3]?
A: 800 nM

Q: What about the AUC total (Mus musculus [4]) of the same molecule?
A: 1.2 µM·h

Q: And the IC50 [5]?
A: 29 µM

Q: What about the IC50 [6] of the same molecule?
A: 0.1 µM

Q: And the MRT [7]?
A: 1.8 h

Q: What about the half-life [8] of the same molecule?
A: 1.4 h

Q: What about the Tmax [9] of the same molecule?
A: 4.8 min

Q: And the IC50 [10]?
A: 35 µM

Q: And the Activity (Homo sapiens [11])?
A: 78%

Q: What about the Cmax [12] of the same molecule?
A: 8270 nM

Q: And the Cmax [13]?
A: 635 nM

Q: What about the Activity (Mus musculus [14]) of the same molecule?
A: 79%

Q: And the IC50 [15]?
A: 5.6 µM

Q: And the Vd [16]?
A: 6.9 L/kg

Q: What about the MRT [17] of the same molecule?
A: 4.1 h

Q: What about the half-life [18] of the same molecule?
A: 1.8 h

Q: What about the AUC total (Mus musculus [19]) of the same molecule?
A: 2.7 µM·h

Q: And the IC50 [20]?
A: 45 µM

Q: What about the IC50 [21] of the same molecule?
A: 24 µM

Q: And the IC50 [22]?
A: > 25 µM

Q: And the IC50 [23]?
A: > 45 µM

Q: And the IC50 [24]?
A: > 50 µM

Q: What about the IC50 [25] of the same molecule?
A: > 45 µM

Q: And the Rate (Mus musculus [26])?
A: 0.22 nM min-1 (mg of protein)-1

Q: What about the Rate (Homo sapiens [27]) of the same molecule?
A: 0.21 nM min-1 (mg of protein)-1

Q: What about the clearance [28] of the same molecule?
A: 67 mL/min/kg

Q: And the half-life [29]?
A: 2.2 h

Q: What about the MRT (Mus musculus [30]) of the same molecule?
A: 2.9 h

Q: And the bioavailability [31]?
A: 24%

Q: And the AUC total (Mus musculus [32])?
A: 4.98 µM·h

Q: What about the T/C (P388) of the same molecule?
A: 140%

Q: And the Tmax [33]?
A: 1 h
